pIC50: −log10 of the molar value.
Test system: 266295-075-R-J1-PDC spheroid viability
Assay: Anticancer human tumor 266295-075-R-J1-PDC patient-derived head and neck squamous carcinoma cell line growth inhibition [POLQ]
Details: spheroids with HUVEC and MSC; for pIC50: curve of first compound; for viability, T/C: stronger effect = lower value
In short: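 PDC + HUVEC + MSC complex spheroids; POLQ inhibitors ± partner drugs; top conc. at/near clinical Cmax, else 10 microM (SN-38 1 microM), half-log dilutions; 37 degrees C, 5% CO2.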

[1] = second compound 0.0316 µM, first compound 0.0316 µM
[2] = second compound 0.0316 µM, first compound 0.1 µM
[3] = second compound 0.0316 µM, first compound 0.316 µM
[4] = second compound 0.0316 µM, first compound 1 µM
[5] = second compound 0.0316 µM, first compound 3.16 µM
[6] = second compound 0.0316 µM, first compound 10 µM
[7] = second compound 0.1 µM, first compound 0.0316 µM
[8] = second compound 0.1 µM, first compound 0.1 µM
[9] = second compound 0.1 µM, first compound 0.316 µM
[10] = second compound 0.1 µM, first compound 1 µM
[11] = second compound 0.1 µM, first compound 3.16 µM
[12] = second compound 0.1 µM, first compound 10 µM
[13] = second compound 0.316 µM, first compound 0.0316 µM
[14] = second compound 0.316 µM, first compound 0.1 µM
[15] = second compound 0.316 µM, first compound 0.316 µM
[16] = second compound 0.316 µM, first compound 1 µM
[17] = second compound 0.316 µM, first compound 3.16 µM
[18] = second compound 0.316 µM, first compound 10 µM
[19] = second compound 1 µM, first compound 0.0316 µM
[20] = second compound 1 µM, first compound 0.1 µM
[21] = second compound 1 µM, first compound 0.316 µM
[22] = second compound 1 µM, first compound 1 µM
[23] = second compound 1 µM, first compound 3.16 µM
[24] = second compound 1 µM, first compound 10 µM
[25] = second compound 3.16 µM, first compound 0.0316 µM
[26] = second compound 3.16 µM, first compound 0.1 µM
[27] = second compound 3.16 µM, first compound 0.316 µM
[28] = second compound 3.16 µM, first compound 1 µM
[29] = second compound 3.16 µM, first compound 3.16 µM
[30] = second compound 3.16 µM, first compound 10 µM
[31] = second compound 10 µM, first compound 0.0316 µM
[32] = second compound 10 µM, first compound 0.1 µM
[33] = second compound 10 µM, first compound 0.316 µM
[34] = second compound 10 µM, first compound 1 µM
[35] = second compound 10 µM, first compound 3.16 µM
[36] = second compound 10 µM, first compound 10 µM
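Note: spheroids exposed to compounds for seven days before readout.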

CC(C)n1c(=O)n(C)c2cnc3cc(F)c(-c4ccc(OCCCN5CCCCC5)nc4)cc3c21 + Nc1ccc(C#CCN(C(=O)Cc2ncc(C(F)(F)F)cc2C(F)(F)F)c2ccc(F)cc2)nn1
pIC50 (second compound 0.0316 µM): < 5.00 | pIC50 (second compound 0.1 µM): < 5.00 | pIC50 (second compound 0.316 µM): < 5.00 | pIC50 (second compound 1 µM): < 5.00 | pIC50 (second compound 3.16 µM): < 5.00 | pIC50 (second compound 10 µM): < 5.00 | viability, T/C [1]: 105% | viability, T/C [2]: 99.3% | viability, T/C [3]: 104% | viability, T/C [4]: 106% | viability, T/C [5]: 82.8% | viability, T/C [6]: 76.3% | viability, T/C [7]: 93.8% | viability, T/C [8]: 103% | viability, T/C [9]: 88% | viability, T/C [10]: 80.6% | viability, T/C [11]: 96% | viability, T/C [12]: 64.5% | viability, T/C [13]: 110% | viability, T/C [14]: 105% | viability, T/C [15]: 90.2% | viability, T/C [16]: 91.3% | viability, T/C [17]: 89.9% | viability, T/C [18]: 66.7% | viability, T/C [19]: 93.5% | viability, T/C [20]: 114% | viability, T/C [21]: 99.4% | viability, T/C [22]: 90% | viability, T/C [23]: 82.2% | viability, T/C [24]: 65.3% | viability, T/C [25]: 121% | viability, T/C [26]: 118% | viability, T/C [27]: 103% | viability, T/C [28]: 96.3% | viability, T/C [29]: 92.4% | viability, T/C [30]: 87.9% | viability, T/C [31]: 96.5% | viability, T/C [32]: 87.9% | viability, T/C [33]: 118% | viability, T/C [34]: 93.3% | viability, T/C [35]: 66.4% | viability, T/C [36]: 71.8%

Cn1ncnc1[C@H]1c2n[nH]c(=O)c3cc(F)cc(c23)N[C@@H]1c1ccc(F)cc1 + Nc1ccc(C#CCN(C(=O)Cc2ncc(C(F)(F)F)cc2C(F)(F)F)c2ccc(F)cc2)nn1
pIC50 (second compound 0.0316 µM): < 7.00 | pIC50 (second compound 0.1 µM): < 7.00 | pIC50 (second compound 0.316 µM): < 7.00 | pIC50 (second compound 1 µM): < 7.00 | pIC50 (second compound 3.16 µM): < 7.00 | pIC50 (second compound 10 µM): < 7.00 | viability, T/C (second compound 0.0316 µM, first compound 0.000316 µM): 86.1% | viability, T/C (second compound 0.0316 µM, first compound 0.001 µM): 95.8% | viability, T/C (second compound 0.0316 µM, first compound 0.00316 µM): 89.1% | viability, T/C (second compound 0.0316 µM, first compound 0.01 µM): 92.1% | viability, T/C [1]: 79.7% | viability, T/C [2]: 85.3% | viability, T/C (second compound 0.1 µM, first compound 0.000316 µM): 97.9% | viability, T/C (second compound 0.1 µM, first compound 0.001 µM): 107% | viability, T/C (second compound 0.1 µM, first compound 0.00316 µM): 91.8% | viability, T/C (second compound 0.1 µM, first compound 0.01 µM): 101% | viability, T/C [7]: 88.5% | viability, T/C [8]: 101% | viability, T/C (second compound 0.316 µM, first compound 0.000316 µM): 110% | viability, T/C (second compound 0.316 µM, first compound 0.001 µM): 114% | viability, T/C (second compound 0.316 µM, first compound 0.00316 µM): 92.1% | viability, T/C (second compound 0.316 µM, first compound 0.01 µM): 82.7% | viability, T/C [13]: 93% | viability, T/C [14]: 99.4% | viability, T/C (second compound 1 µM, first compound 0.000316 µM): 105% | viability, T/C (second compound 1 µM, first compound 0.001 µM): 96.3% | viability, T/C (second compound 1 µM, first compound 0.00316 µM): 78.6% | viability, T/C (second compound 1 µM, first compound 0.01 µM): 99% | viability, T/C [19]: 105% | viability, T/C [20]: 69.7% | viability, T/C (second compound 3.16 µM, first compound 0.000316 µM): 103% | viability, T/C (second compound 3.16 µM, first compound 0.001 µM): 101% | viability, T/C (second compound 3.16 µM, first compound 0.00316 µM): 98.5% | viability, T/C (second compound 3.16 µM, first compound 0.01 µM): 83.8% | viability, T/C [25]: 87.9% | viability, T/C [26]: 87.6% | viability, T/C (second compound 10 µM, first compound 0.000316 µM): 91.6% | viability, T/C (second compound 10 µM, first compound 0.001 µM): 103% | viability, T/C (second compound 10 µM, first compound 0.00316 µM): 110% | viability, T/C (second compound 10 µM, first compound 0.01 µM): 104% | viability, T/C [31]: 88.5% | viability, T/C [32]: 122%

COc1cccc2c1C(=O)c1c(O)c3c(c(O)c1C2=O)CC(O)(C(=O)CO)CC3OC1CC(N)C(O)C(C)O1 (stereo not given) + COC1C(OC(N)=O)C(O)C(Oc2ccc3c(O)c(NC(=O)c4ccc(O)c(CC=C(C)C)c4)c(=O)oc3c2C)OC1(C)C
pIC50 (second compound 0.0316 µM): 5.50 | pIC50 (second compound 0.1 µM): 5.59 | pIC50 (second compound 0.316 µM): 5.46 | pIC50 (second compound 1 µM): 5.58 | pIC50 (second compound 3.16 µM): 5.67 | pIC50 (second compound 10 µM): 5.43 | viability, T/C [1]: 95.5% | viability, T/C [2]: 104% | viability, T/C [3]: 82.4% | viability, T/C [4]: 75.8% | viability, T/C [5]: 51.8% | viability, T/C [6]: 2.47% | viability, T/C [7]: 107% | viability, T/C [8]: 96% | viability, T/C [9]: 74.2% | viability, T/C [10]: 74.7% | viability, T/C [11]: 50.4% | viability, T/C [12]: 2.16% | viability, T/C [13]: 102% | viability, T/C [14]: 96% | viability, T/C [15]: 76.7% | viability, T/C [16]: 74.8% | viability, T/C [17]: 61.4% | viability, T/C [18]: 2.49% | viability, T/C [19]: 103% | viability, T/C [20]: 91.4% | viability, T/C [21]: 77% | viability, T/C [22]: 64.6% | viability, T/C [23]: 57.5% | viability, T/C [24]: 2.7% | viability, T/C [25]: 98.8% | viability, T/C [26]: 90.4% | viability, T/C [27]: 78.4% | viability, T/C [28]: 68.7% | viability, T/C [29]: 42.3% | viability, T/C [30]: 2.41% | viability, T/C [31]: 99.5% | viability, T/C [32]: 83.1% | viability, T/C [33]: 83.1% | viability, T/C [34]: 75% | viability, T/C [35]: 62.2% | viability, T/C [36]: 1.87%

CCCS(=O)(=O)Nc1ccc(F)c(C(=O)c2c[nH]c3ncc(-c4ccc(Cl)cc4)cc23)c1F + COC1C(OC(N)=O)C(O)C(Oc2ccc3c(O)c(NC(=O)c4ccc(O)c(CC=C(C)C)c4)c(=O)oc3c2C)OC1(C)C
pIC50 (second compound 0.0316 µM): < 5.00 | pIC50 (second compound 0.1 µM): < 5.00 | pIC50 (second compound 0.316 µM): < 5.00 | pIC50 (second compound 1 µM): < 5.00 | pIC50 (second compound 3.16 µM): < 5.00 | pIC50 (second compound 10 µM): < 5.00 | viability, T/C [1]: 99% | viability, T/C [2]: 116% | viability, T/C [3]: 107% | viability, T/C [4]: 115% | viability, T/C [5]: 169% | viability, T/C [6]: 172% | viability, T/C [7]: 101% | viability, T/C [8]: 121% | viability, T/C [9]: 105% | viability, T/C [10]: 112% | viability, T/C [11]: 157% | viability, T/C [12]: 222% | viability, T/C [13]: 116% | viability, T/C [14]: 102% | viability, T/C [15]: 102% | viability, T/C [16]: 128% | viability, T/C [17]: 155% | viability, T/C [18]: 195% | viability, T/C [19]: 117% | viability, T/C [20]: 102% | viability, T/C [21]: 102% | viability, T/C [22]: 113% | viability, T/C [23]: 143% | viability, T/C [24]: 172% | viability, T/C [25]: 98.7% | viability, T/C [26]: 87.5% | viability, T/C [27]: 140% | viability, T/C [28]: 130% | viability, T/C [29]: 139% | viability, T/C [30]: 178% | viability, T/C [31]: 112% | viability, T/C [32]: 95.5% | viability, T/C [33]: 111% | viability, T/C [34]: 153% | viability, T/C [35]: 144% | viability, T/C [36]: 166%

O=c1[nH]cc(F)c(=O)[nH]1 + COC1C(OC(N)=O)C(O)C(Oc2ccc3c(O)c(NC(=O)c4ccc(O)c(CC=C(C)C)c4)c(=O)oc3c2C)OC1(C)C
pIC50 (second compound 0.0316 µM): < 5.00 | pIC50 (second compound 0.1 µM): < 5.00 | pIC50 (second compound 0.316 µM): < 5.00 | pIC50 (second compound 1 µM): < 5.00 | pIC50 (second compound 3.16 µM): < 5.00 | pIC50 (second compound 10 µM): < 5.00 | viability, T/C [1]: 103% | viability, T/C [2]: 86.2% | viability, T/C [3]: 93.1% | viability, T/C [4]: 107% | viability, T/C [5]: 96.1% | viability, T/C [6]: 100% | viability, T/C [7]: 106% | viability, T/C [8]: 110% | viability, T/C [9]: 86.8% | viability, T/C [10]: 93.6% | viability, T/C [11]: 89% | viability, T/C [12]: 103% | viability, T/C [13]: 103% | viability, T/C [14]: 106% | viability, T/C [15]: 97.3% | viability, T/C [16]: 97.3% | viability, T/C [17]: 91.7% | viability, T/C [18]: 89% | viability, T/C [19]: 94.2% | viability, T/C [20]: 122% | viability, T/C [21]: 93.2% | viability, T/C [22]: 111% | viability, T/C [23]: 90.6% | viability, T/C [24]: 89.9% | viability, T/C [25]: 112% | viability, T/C [26]: 93.5% | viability, T/C [27]: 108% | viability, T/C [28]: 97.8% | viability, T/C [29]: 105% | viability, T/C [30]: 90.5% | viability, T/C [31]: 102% | viability, T/C [32]: 103% | viability, T/C [33]: 96.2% | viability, T/C [34]: 103% | viability, T/C [35]: 98.7% | viability, T/C [36]: 78.9%
